Measured values: patent US12655184B2, “Labyrinthin-based peptides for cancer immunotherapies and uses thereof” (LABYRX IMMUNOLOGIC THERAPEUTICS (USA) LIMITED, priority 2018, dated 2026)
Ends that are not written are not given here.

Tests used:
Format in all cases: physicochemical
[1] = solubility by visual examination in ultrapure water, PBS and DMSO; conditions: for Solubility, PBS (pH 7.4): 0.1 M PBS pH 7.4, visual examination
Method: The solubility of each labyrinthin-derived peptide candidate was assessed by visual examination in ultrapure water, 0.1 M PBS (PBS; pH 7.4), and dimethyl sulfoxide (DMSO; analytical grade). As reported in Table 4, a solubility of less than 0.1 mg/mL of solvent was defined as “Undissolved” and solubility of greater than or 0.1 mg/mL was defined as “Dissolved.” The concentration range of measured solubility is provided under the “Dissolved” classification where available (Table 4).

[2] = solubility in phosphate buffer with/without 0.9% NaCl, pH serially lowered with acetic acid, concentration remaining in solution
Method: In further solubility testing, two tubes of 1.1 mg peptide for each of the four candidate peptides target was dissolved into 1 mL phosphate buffer (pH 10) (with and without 0.9% NaCl). The peptide solutions were subsequently stored at 4° C. for several hours to dissolve the peptides thoroughly. Following centrifugation, the peptide concentration that remained in solution was measured. The solubility of all four peptide candidates under all tested condition in Table 6 as above 0.3 mg/mL, and for each peptide candidate the variability of solubility across the pH ranges tested was minimal.

[3] = solubility tests in DMSO, normal saline and 0.2 M NaCl by visual examination; conditions: for Solubility (dissolved Yes/No), 0.2M Sodium (NaCl): 0.2 M NaCl; for Solubility (dissolved Yes/No), 0.154M Sodium (NaCl): normal saline, 0.154 M NaCl
Method: Additional testing was completed to attempt to overcome the above-identified solubility issues. Results of the solubility tests performed for each labyrinthin-derived peptide candidate (SEQ ID NOS:29-32) are shown in Table 5. In short, all peptides were again dissolved in DMSO, confirming that the peptides had the capacity to dissolve in solution. Peptide solubility was then tested in normal saline (0.154 M sodium (NaCl)) and 0.2 M sodium (NaCl). Normal saline is generally an option as a solvent/diluent as use for such purpose is accepted by the […]. […] Additional solutions were tested to determine an alternative diluent to solubilize the candidate peptides, as determined by visual examination.

[4] = DMSO analytical grade, visual examination, read-out: Solubility, DMSO
[5] = DMSO, read-out: concentration range of measured solubility, DMSO
[6] = pH 7.4, 0.1 M PBS pH 7.4, visual examination, read-out: Solubility, PBS (pH 7.4)
[7] = ultrapure water, visual examination
[8] = ultrapure water, visual examination, read-out: Solubility, Ultrapure water
[9] = pH 4, PBS with 0.9% NaCl, pH 4, read-out: Solubility pH 4
[10] = pH 4, PBS without NaCl, pH 4, read-out: Solubility pH 4
[11] = pH 5, PBS with 0.9% NaCl, pH 5, read-out: Solubility pH 5
[12] = pH 5, PBS without NaCl, pH 5, read-out: Solubility pH 5
[13] = pH 5.5, PBS with 0.9% NaCl, pH 5.5, read-out: Solubility pH 5.5
[14] = pH 5.5, PBS without NaCl, pH 5.5, read-out: Solubility pH 5.5
[15] = pH 6, PBS with 0.9% NaCl, pH 6, read-out: Solubility pH 6
[16] = pH 6, PBS without NaCl, pH 6, read-out: Solubility pH 6
[17] = pH 6.5, PBS with 0.9% NaCl, pH 6.5, read-out: Solubility pH 6.5
[18] = pH 6.5, PBS without NaCl, pH 6.5, read-out: Solubility pH 6.5
[19] = pH 7, PBS with 0.9% NaCl, pH 7, read-out: Solubility pH 7
[20] = pH 7, PBS without NaCl, pH 7, read-out: Solubility pH 7
[21] = pH 7.5, PBS with 0.9% NaCl, pH 7.5, read-out: Solubility pH 7.5
[22] = pH 7.5, PBS without NaCl, pH 7.5, read-out: Solubility pH 7.5
[23] = pH 8, PBS with 0.9% NaCl, pH 8, read-out: Solubility pH 8
[24] = pH 8, PBS without NaCl, pH 8, read-out: Solubility pH 8
[25] = pH 8.5, PBS with 0.9% NaCl, pH 8.5, read-out: Solubility pH 8.5
[26] = pH 8.5, PBS without NaCl, pH 8.5, read-out: Solubility pH 8.5
[27] = pH 9, PBS with 0.9% NaCl, pH 9, read-out: Solubility pH 9
[28] = pH 9, PBS without NaCl, pH 9, read-out: Solubility pH 9
[29] = pH 10, PBS with 0.9% NaCl, pH 10, read-out: Solubility pH 10
[30] = pH 10, PBS without NaCl, pH 10, read-out: Solubility pH 10
[31] = pH 7.4, 0.1 M PBS pH 7.4, read-out: concentration range of measured solubility, PBS (pH 7.4)

Row | solubility [1, 4] [µg/mL] | solubility [1, 6] [µg/mL] | solubility [1, 8] [µg/mL] | solubility [2, 9] [µg/mL] | solubility [2, 10] [µg/mL] | solubility [2, 11] [µg/mL] | solubility [2, 12] [µg/mL] | solubility [2, 13] [µg/mL] | solubility [2, 14] [µg/mL] | solubility [2, 15] [µg/mL] | solubility [2, 16] [µg/mL] | solubility [2, 17] [µg/mL] | solubility [2, 18] [µg/mL] | solubility [2, 19] [µg/mL] | solubility [2, 20] [µg/mL] | solubility [2, 21] [µg/mL] | solubility [2, 22] [µg/mL] | solubility [2, 23] [µg/mL] | solubility [2, 24] [µg/mL] | solubility [2, 25] [µg/mL] | Sequence | also measured
1 | > 100 | < 100 | < 100 | 382 | 387 | 401 | 397 | 412 | 337 | 411 | 404 | 406 | 407 | 412 | 402 | 412 | 415 | 415 | 421 | 433 | DSQVIVEEVSIFPVEEQQEVPPD [SEQ ID NO: 32] | Solubility, PBS (pH 7.4) [1]: did not improve solubility; solubility [1, 5]: ≤ 10000 µg/mL; Solubility, Ultrapure water [1, 7]: undissolved; solubility [2, 26]: 424 µg/mL; solubility [2, 27]: 426 µg/mL; solubility [2, 28]: 445 µg/mL; solubility [2, 29]: 413 µg/mL; solubility [2, 30]: 419 µg/mL; Solubility (dissolved Yes/No), 0.2M Sodium (NaCl) [3]: Yes; Solubility (dissolved Yes/No), DMSO [3]: Yes; Solubility (dissolved Yes/No), 0.154M Sodium (NaCl) [3]: No; Solubility (dissolved Yes/No), 0.154M Sodium (NaCl) ([3]; listed as SEQ ID NO:32): did not dissolve
2 | > 100 | > 100 | > 100 | 687 | 731 | 694 | 738 | 695 | 738 | 695 | 742 | 706 | 753 | 701 | 748 | 703 | 757 | 707 | 756 | 702 | GEDLQQEDGPTGEPQQEDDEFL [SEQ ID NO: 29] | solubility [1, 31]: ≤ 10000 µg/mL; solubility ([1]; ultrapure water, read-out: concentration range of measured solubility, Ultrapure water): ≤ 10000 µg/mL; solubility [2, 26]: 762 µg/mL; solubility [2, 27]: 707 µg/mL; solubility [2, 28]: 757 µg/mL; solubility [2, 29]: 708 µg/mL; solubility [2, 30]: 765 µg/mL; Solubility (dissolved Yes/No), 0.2M Sodium (NaCl) [3]: Yes; Solubility (dissolved Yes/No), DMSO [3]: Yes; Solubility (dissolved Yes/No), 0.154M Sodium (NaCl) [3]: Yes
3 | > 100 | > 100 | < 100 | 496 | 647 | 510 | 669 | 510 | 667 | 529 | 674 | 498 | 673 | 539 | 710 | 555 | 712 | 542 | 720 | 540 | DMEEMMSEQENPDSSEPVVEDE [SEQ ID NO: 30] | solubility [1, 5]: ≤ 10000 µg/mL; solubility [1, 31]: ≤ 10000 µg/mL; Solubility, Ultrapure water [1, 7]: undissolved; solubility [2, 26]: 730 µg/mL; solubility [2, 27]: 548 µg/mL; solubility [2, 28]: 738 µg/mL; solubility [2, 29]: 552 µg/mL; solubility [2, 30]: 726 µg/mL; Solubility (dissolved Yes/No), 0.2M Sodium (NaCl) [3]: Yes; Solubility (dissolved Yes/No), DMSO [3]: Yes; Solubility (dissolved Yes/No), 0.154M Sodium (NaCl) [3]: Yes
4 | > 100 | < 100 | < 100 | 806 | 777 | 813 | 802 | 826 | 819 | 833 | 773 | 831 | 769 | 838 | 825 | 852 | 812 | 861 | 847 | 848 | NEGIEITEVTAPPEDNPVEDSQ [SEQ ID NO: 31] | Solubility, PBS (pH 7.4) [1]: did not improve solubility; solubility [1, 5]: ≤ 5000 µg/mL; Solubility, Ultrapure water [1, 7]: undissolved; solubility [2, 26]: 854 µg/mL; solubility [2, 27]: 866 µg/mL; solubility [2, 28]: 857 µg/mL; solubility [2, 29]: 881 µg/mL; solubility [2, 30]: 849 µg/mL; Solubility (dissolved Yes/No), 0.2M Sodium (NaCl) [3]: Yes; Solubility (dissolved Yes/No), DMSO [3]: Yes; Solubility (dissolved Yes/No), 0.154M Sodium (NaCl) [3]: No; Solubility (dissolved Yes/No), 0.154M Sodium (NaCl) ([3]; listed as SEQ ID NO:31): did not dissolve
